Activity calls are given as the source filed them. Rule as the data show it: active = inhibition of 80% or more and inactive = less.

The assay concerns Naegleria gruberi. The experiment in a line: microbe, parasite or virus in culture. In kind it is functional. Conditions: NEG-M, CONC 10 uM.
Description: Growth inhibiting activity of Naegleria gruberi in vitro
Take `NCCCC(N)(C(=O)O)C(F)F` (stereo not drawn) [EFLORNITHINE]: the inhibition – broadly, the drop in the measured response relative to a control, in per cent – at 10 µM was 33.6% (not active).

As to `COC(=O)c1ccc(F)cc1NS(=O)(=O)c1cccc(-c2cnn(Cc3ccccc3)c2)c1`, the inhibition at 10 µM is on record as 26.2% (not active).

`CC(=O)NC[C@@H]1CN(c2ccc(N3CCOCC3)c(F)c2)C(=O)O1`: the inhibition at 10 µM was 20.1% (not active).

Take `N=C(N)c1ccc(OCCCCCOc2ccc(C(=N)N)cc2)cc1` [PENTAMIDINE]: the inhibition at 10 µM is 43% (not active).

Regarding `CCN(CC)C(=O)N1CCN(C)CC1` [DIETHYLCARBAMAZINE], the inhibition at 10 µM is listed as 19% (not active).

Take `CCCCS(=O)(=O)Nc1ccc2cnn(C)c2c1`: the inhibition at 10 µM was 17.4% (not active).

On to `Cc1ccccc1C(=O)N1N=C(Nc2ccccc2)SC1(C)C`, for which the inhibition at 10 µM is 12.6% (not active).

Regarding `COC(=O)C1=C(C)NC(C)=C(C(=O)OC(C)C)C1c1cccc2nonc12` (stereo not drawn) [ISRADIPINE], the inhibition at 10 µM is reported as 48.7% (not active).

`Cc1nc2ccccn2c1C(=O)NCc1ccc(Cl)cc1`: the inhibition at 10 µM is recorded as 37.8% (not active).

In the case of `Brc1c(-c2ccc3c(c2)OCO3)nc2ncccn12`, the inhibition at 10 µM is reported as 39.1% (not active).

Consider `CCc1c(C)nc(-n2nc(C)cc2NC(=O)c2ccccc2SC)[nH]c1=O`, for which the inhibition at 10 µM is reported as 17.4% (not active).

As for `CC(Oc1cccc(Cl)c1)C(=O)Nc1ccc2oc(-c3ccncc3)nc2c1` (stereo not drawn), the inhibition at 10 µM is reported as 35.9% (not active).

As to `CCc1cc(=O)n(C)c(SC(C)C(=O)Nc2ccc(F)cc2)n1` (stereo not drawn), the inhibition at 10 µM is listed as 10.4% (not active).

Take `CC(C)(C)c1cnc(NC(=O)c2ccccc2O)s1`: the inhibition at 10 µM is recorded as 0% (not active).

As to `Cc1ccc(NC(=O)c2cc(S(=O)(=O)NC(C)(C)C)ccc2C)nc1`, the inhibition at 10 µM is reported as 34.7% (not active).

For `CC(C)/N=c1\cc2n(-c3ccc(Cl)cc3)c3ccccc3nc-2cc1Nc1ccc(Cl)cc1` [CLOFAZIMINE], the inhibition at 10 µM is given as 67.9% (not active).

On to `Cc1ncc(-c2ccnc(Nc3ccc(S(C)(=O)=O)cc3)n2)n1C(C)C` [AZD-5438], for which the inhibition at 10 µM was 47.7% (not active).

For the compound `CCc1nn(C)c(C(=O)NCc2ccc(Oc3ccc(C)cc3)cc2)c1Cl` [TOLFENPYRAD], the inhibition at 10 µM was 93.3% (active).

For the compound `O=C(Cn1ccnc1[N+](=O)[O-])NCc1ccccc1` [BENZNIDAZOLE], the inhibition at 10 µM is reported as 37.4% (not active).

In the case of `CCC(=O)Nc1ccccc1C(=O)Nc1ccccn1`, the inhibition at 10 µM is reported as 35.7% (not active).

`O=C(NCc1nnc2n1CCCCC2)c1ccc(-c2ccc(F)cc2)o1`: the inhibition at 10 µM was 29.3% (not active).

With `CC(C(=O)N1CCCC1)N1CCN(S(=O)(=O)c2ccc(C(C)(C)C)cc2)CC1` (stereo not drawn), the inhibition at 10 µM is 4.7% (not active).

Regarding `CCOC(=O)NC(=O)c1ccsc1NC(=O)c1nc2ccccc2s1`, the inhibition at 10 µM is 89.3% (active).

For `COc1cc(NC(C)CCCN)c2ncccc2c1` (stereo not drawn) [PRIMAQUINE], the inhibition at 10 µM was 10.7% (not active).

`CC1(C)Cc2c(c(N3CCOCC3)nc3snc(Br)c23)CO1`: the inhibition at 10 µM is reported as 0% (not active).

In the case of `CC(C)(C)C(=O)N(CCCCCCN1C[C@H](O)[C@@H](O)[C@H](O)[C@H]1CO)C1CCCCCC1`, the inhibition at 10 µM is given as 0.1% (not active).

In the case of `CN1CCCN(C(c2ccccc2)c2ccc(Cl)cc2)CC1` (stereo not drawn) [HOMOCHLORCYCLIZINE], the inhibition at 10 µM was 11.6% (not active).

Take `COc1cccc(NC(=O)c2c(NC(=O)c3cccnc3)sc3c2CCC3)c1`: the inhibition at 10 µM is recorded as 62.6% (not active).

Consider `CNc1cc(C)nc(C2CN(C(=O)c3n[nH]c4ccccc34)CCO2)c1` (stereo not drawn), for which the inhibition at 10 µM was 24.2% (not active).

For the compound `Nc1ncc(-c2cn[nH]c2)cc1-c1nc2cc(Cl)cnc2[nH]1`, the inhibition at 10 µM was 10.2% (not active).

For the compound `Cn1c(=O)c2c(S(C)(=O)=O)snc2n(C)c1=O`, the inhibition at 10 µM is 72.3% (not active).

`Cc1ccc2oc(-c3cc(NC(=O)Cc4ccccc4)ccc3Cl)nc2c1`: the inhibition at 10 µM was 44.5% (not active).

Consider `O=C(C1CCN(c2nnnn2-c2ccccc2)CC1)N1CCc2ccccc2C1`, for which the inhibition at 10 µM is on record as 25.8% (not active).

Consider `CC(C)(C)c1ccc(N[C@@H]2CCCC[C@H]2NC(=O)c2ccco2)cc1`, for which the inhibition at 10 µM is on record as 8.8% (not active).

Turning to `C[C@H]1COc2c(N3CCN(C)CC3)c(F)cc3c(=O)c(C(=O)O)cn1c23` [LEVOFLOXACIN], the inhibition at 10 µM is on record as 0% (not active).

`CS(=O)(=O)N1CCC(CCn2nc(Cc3cccc4ccccc34)c3c(N)ncnc32)CC1`: the inhibition at 10 µM is reported as 26.2% (not active).

With `CC(C)(C)CN1C(=O)C(c2ccccc2)(c2ccccc2)N=C1N`, the inhibition at 10 µM is 19.2% (not active).

Consider `N#CCN(CCCCN1CCN(c2ccc(F)cc2)CC1)C(=O)OCc1ccccc1`, for which the inhibition at 10 µM is reported as 21.3% (not active).

On to `CCn1cnc2c(Nc3cc(F)cc(F)c3)nc(C#N)nc21`, for which the inhibition at 10 µM is 83.2% (active).

In the case of `N#Cc1nc(-c2ccccc2)oc1S(=O)(=O)c1ccc(Cl)cc1`, the inhibition at 10 µM is given as 9.4% (not active).

`c1ccc(-c2[nH]c3ccccc3c2C(c2ccccn2)N2CCCC2)cc1` (stereo not drawn): the inhibition at 10 µM is 32.7% (not active).

Take `CNCCC(Oc1ccc(C(F)(F)F)cc1)c1ccccc1` (stereo not drawn) [FLUOXETINE]: the inhibition at 10 µM is 7.5% (not active).

Consider `NC(CC(=O)c1ccc(Cl)cc1Cl)C(Cl)(Cl)Cl` (stereo not drawn), for which the inhibition at 10 µM is on record as 11.7% (not active).

As to `Cc1ccc(Oc2ccc(NC(=O)CNc3ccccc3N3CCCC3=O)cc2)cc1`, the inhibition at 10 µM is 18.8% (not active).

For `O=C(Nc1cccc(Cl)c1)c1cnc(N2CCN(c3ccncc3)CC2)c(Cl)c1`, the inhibition at 10 µM is 39.6% (not active).

In the case of `COc1cc(OC)cc(C(=O)NCC2Cc3cc(Cl)cc(-c4ccncc4)c3O2)c1` (stereo not drawn), the inhibition at 10 µM was 20.9% (not active).

Turning to `NC(=O)c1cc(-c2ccsc2)ccc1OCCOc1ccccc1`, the inhibition at 10 µM is 43.7% (not active).

With `CCCS(=O)(=O)N1CCC(CO)(Cc2ccccc2C(F)(F)F)CC1`, the inhibition at 10 µM is listed as 19% (not active).

Consider `Cc1cc(O)nc(-n2nc(C)cc2C)n1`, for which the inhibition at 10 µM is on record as 3.8% (not active).

With `Nc1nccc2ccc(Oc3ccncc3)cc12`, the inhibition at 10 µM was 3% (not active).

With `O=C1N(Cc2cc3ccccc3s2)CC2CN(Cc3ccccc3)CCN12` (stereo not drawn), the inhibition at 10 µM is reported as 34.3% (not active).

Take `Cc1cc(C(=O)Nc2cnn(Cc3ccc(Cl)cc3Cl)c2)no1`: the inhibition at 10 µM is reported as 65% (not active).

Turning to `O=C(c1ccco1)N(CCCn1ccnc1)c1nc2c(Cl)cccc2s1`, the inhibition at 10 µM was 68.6% (not active).

As to `CCOC(=O)c1cc(-c2csc(Nc3c(C)cc(C)cc3C)n2)on1`, the inhibition at 10 µM is recorded as 33.4% (not active).

As for `O=C(c1[nH]nc2c1CCCC2)N1CCN(Cc2ccc3c(c2)OCO3)CC1`, the inhibition at 10 µM is 29.5% (not active).

Regarding `CS(=O)(=O)c1cccc(-c2cnc3[nH]cc(-c4ccc(CCC(=O)O)cc4)c3c2)c1`, the inhibition at 10 µM is 28.7% (not active).

On to `COc1ccc(Nc2ccccc2NC(=O)c2ccc(O)nc2)cc1`, for which the inhibition at 10 µM is on record as 24.1% (not active).

For the compound `O=C([C@@H](c1ccc(Cl)cc1)c1cccnc1)N1CCN(c2ccc(C(F)(F)F)cc2)CC1`, the inhibition at 10 µM is on record as 75.6% (not active).

The values above are taken from ChEMBL document CHEMBL4513101, “Naegleria gruberi Pathogen Box compounds screening” (2021).
